Legend:
[1] = acute toxicity in Swiss mice; assay type: in vivo, mouse; conditions: mouse, in vivo, Swiss mice
Text: ACUTE TOXICITY IN SWISS MICE
Table III lists the comparative toxicological data concerning Vincristine, Vinblastine and F-leurosine. The new analogue is approximately 7 times less toxic than Vincristine and 4 times less toxic than Vinblastine in acute rodent experiments.

Harding Passey melanoma = conditions: cited from earlier work
VX-2 rabbit epitheloma = conditions: cited from earlier work
rhabdomyo-sarcoma = conditions: cited from earlier work
cancer = conditions: animal tests and human therapy; cited from earlier work

SMILES	LD50 ([1]; ip, 1 x i.p.) [mg/kg]	LD50 ([1]; iv, 1 x i.v.) [mg/kg]	treatability with hitherto known cytostatics (Harding Passey melanoma)	treatability with hitherto known cytostatics (VX-2 rabbit epitheloma)	treatability with hitherto known cytostatics (rhabdomyo-sarcoma)	activity relative to vinblastine (cancer)
CC[C@]1(O)C[C@@H]2CN(CCc3c([nH]c4ccccc34)[C@@](C(=O)OC)(c3cc4c(cc3OC)N(C)[C@H]3[C@@](O)(C(=O)OC)[C@H](OC(C)=O)[C@]5(CC)C=CCN6CC[C@]43[C@@H]65)C2)C1 [Vinblastine, vincaleucoblastine]	7.6	15	could hardly be treated, if at all	could hardly be treated, if at all	could hardly be treated, if at all	
CC[C@]1(O)C[C@H]2CN(CCc3c([nH]c4ccccc34)[C@@](C(=O)OC)(c3cc4c(cc3OC)N(C=O)[C@H]3[C@@](O)(C(=O)OC)[C@H](OC(C)=O)[C@]5(CC)C=CCN6CC[C@]43[C@@H]65)C2)C1 [Vincristine, leurocristine]	4	3	could hardly be treated, if at all	could hardly be treated, if at all	could hardly be treated, if at all	more active both in animal tests, and, primarily, in human therapy

— patent US4279915A, “Method of treatment using new leurosine derivatives” (priority 1973, dated 1981)
